1 molecule from US5254543A, “Sulphonylbenzyl-substituted pyridones which are angiotension II receptor antagonists” (Bayer Aktiengesellschaft, priority 1992, dated 1993) can be followed below.

For orientation: IC50 means the point on the concentration scale where inhibition reaches its midpoint.

For the experiment, the system named is angiotensin II-induced contraction of isolated rabbit aorta rings. Briefly: Inhibition of agonist-induced contraction, angiotensin II: inhibition of vascular contraction in isolated rabbit aorta rings in vitro. Conditions: based on the 3rd = submaximal agonist concentration, read-out: IC50 against contractions induced by AII. How it is done: Rabbits of both sexes are stunned by a blow to the neck and bled out, or in some cases anesthetised with Nembutal (about 60-80 mg/kg i.v.) and sacrificed by opening the thorax. The thorax aorta is taken out, freed from adhering connective tissue, divided into 1.5 mm wide ring segments and individually transferred under an initial loading of about 3.5 g to 10 ml organ baths containing 95% O2 /5% CO2 -aerated Krebs-Henseleit nutrient solution temperature-controlled at 37° C. of the following composition: 119 mmol/l of NaCl; 2.5 mmol/l of CaCl2 ×2 H2 O; 1.2 mmol/l of KH2 PO4; 10 mmol/l of glucose; 4.8 mmol/l of KCl; 1.4 mmol/l of MgSO4 ×7 H2 O and 25 mmol/l of NaHCO3.
The contractions are measured isometrically by Statham UC2 cells by means of bridge amplifiers (ifd Mulheim or DSM Aalen) and digitalised and analysed by means of A/D convertors (System 570, Keithley Munich). Agonist dose response curves (DRC) were plotted hourly. With each DRC, 3 or 4 individual concentrations are applied to the baths at an interval of 4 min. […]
The height of the 3rd DRC in the normal case is used as a reference quantity for the evaluation of the test substance to be investigated in further passages, which is applied to the baths in the following DRCs in increasing dosage in each case at the start of the incubation time. […]

Consider `CCCCc1cc(C(=O)O)cc(=O)n1Cc1ccc(S(=O)(=O)N2CCCC2C(=O)O)cc1Cl` (stereo not shown) [Example 6], for which the IC50 was 280 nM.
